Our source for the IC50 values is US8633204B2 (Pfizer Inc., priority 2006, dated 2014).

What is called pIC50 is the negative decadic logarithm of the IC50, by convention in mol/L. High values mean a low IC50, low ones a high IC50.

pIC50: −log10 of the molar value. Bounds are passed on as bounds.

Assay [1] addresses PI3-Kα (Mus musculus (Mouse), UniProt P42337). Description: PI3-Kα Biochemical Assay (fluorescence polarization kinase assay). As to the method:
Compounds of the present invention were evaluated for potency against PI3-Kα using an in vitro kinase assay. PI3-Kα activity is measured in vitro by determining the level of phosphorylation of the substrate PI(4,5)P2. The formation of product PI(3,4,5)P3 is monitored by binding to the Grip1 PH domain in a ligand displacement fluorescence polarization (FP) assay, in which the TAMRA-labeled PI(3,4,5)P3 complexed with Grip1 PH domain is displaced by PI(3,4,5)P3 formed in the PI3-Kα reaction resulting in a decrease in FP signal. Mouse PI3-Kα P110 and P85 subunits were co-expressed in insect cells and co-purified to homogeneity. PI(4,5)P2 were obtained from Cayman. TAMRA-labeled PI(3,4,5)P3 were from Echelon, Grip1 PH domain from Dundee and other reagents were from Sigma.
All assays were performed in a Corning solid black 96-well half area plate using LJL Analyst (Molecular Devices) at room temperature. The assay buffer contained 50 mM HEPES, pH 7.4, 150 mM NaCl, 5 mM DTT, and 0.05% CHAPS. Dry powder PI(4,5)P2 was dissolved in 50 mM TRIS, pH 8 to make 1 mM stock solution. The PI(4,5)P2 stock solution was then diluted in the assay buffer to 60 μM, and sonicated for 30 sec before use. To the assay plate, the following reagents were added in sequence: 10 μL of 60 μM PI(4,5)P2, 5 μL of 4 nM PI3-Kα, 2 μL of compound in 25% DMSO, 3 μL of mixture containing 200 μM ATP and 33 mM MgCl2. The final volume for the reaction was 20 μL. The reaction mixture was incubated at room temperature for 35 min. The reaction was then stopped by 20 μL of 20 mM EDTA. […] The FP signal was allowed to develop for 40 min before reading on a LJL analyst at excitation 535 nm and emission 580 nm.
The percentage of inhibition was calculated based on the following equation % inhibition=[1−(FPcompound−FPmax)/(FPmin−FPmax)]×100, where FPcompound is the FP reading at a given compound concentration, FPmin is the FP signal of the PI3-Kα reaction in the absence of a compound, and FPmax is the background FP signal in the absence of PI3-Kα and a compound. The IC50 was determined by fitting the FP signal vs. compound concentration to a sigmoidal dose response equation using GraphPad Prism curve fitting program.
For orientation: Fluorescence polarisation rises when a labelled molecule tumbles more slowly, as on binding a larger partner.

The test system of assay [2] is PI3-K in BT20 cells (phosphorylation of AKT at serine 473). Description: PI3-Kα Cellular Assay (AKT Ser473 phosphorylation ELISA in BT20 cells). In kind it is cell-based, human. The settings on record: Homo sapiens, BT-20, pAKT Ser473 ELISA, 1 hour incubation. The procedure, abridged:
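Cells seeded overnight in 0.5% FBS, then exposed 1 h at 37 °C to an 11-concentration 1:3 dilution series, in duplicate.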

Sequence of PI3-Kα (P42337 whole entry, the tested form may be a part): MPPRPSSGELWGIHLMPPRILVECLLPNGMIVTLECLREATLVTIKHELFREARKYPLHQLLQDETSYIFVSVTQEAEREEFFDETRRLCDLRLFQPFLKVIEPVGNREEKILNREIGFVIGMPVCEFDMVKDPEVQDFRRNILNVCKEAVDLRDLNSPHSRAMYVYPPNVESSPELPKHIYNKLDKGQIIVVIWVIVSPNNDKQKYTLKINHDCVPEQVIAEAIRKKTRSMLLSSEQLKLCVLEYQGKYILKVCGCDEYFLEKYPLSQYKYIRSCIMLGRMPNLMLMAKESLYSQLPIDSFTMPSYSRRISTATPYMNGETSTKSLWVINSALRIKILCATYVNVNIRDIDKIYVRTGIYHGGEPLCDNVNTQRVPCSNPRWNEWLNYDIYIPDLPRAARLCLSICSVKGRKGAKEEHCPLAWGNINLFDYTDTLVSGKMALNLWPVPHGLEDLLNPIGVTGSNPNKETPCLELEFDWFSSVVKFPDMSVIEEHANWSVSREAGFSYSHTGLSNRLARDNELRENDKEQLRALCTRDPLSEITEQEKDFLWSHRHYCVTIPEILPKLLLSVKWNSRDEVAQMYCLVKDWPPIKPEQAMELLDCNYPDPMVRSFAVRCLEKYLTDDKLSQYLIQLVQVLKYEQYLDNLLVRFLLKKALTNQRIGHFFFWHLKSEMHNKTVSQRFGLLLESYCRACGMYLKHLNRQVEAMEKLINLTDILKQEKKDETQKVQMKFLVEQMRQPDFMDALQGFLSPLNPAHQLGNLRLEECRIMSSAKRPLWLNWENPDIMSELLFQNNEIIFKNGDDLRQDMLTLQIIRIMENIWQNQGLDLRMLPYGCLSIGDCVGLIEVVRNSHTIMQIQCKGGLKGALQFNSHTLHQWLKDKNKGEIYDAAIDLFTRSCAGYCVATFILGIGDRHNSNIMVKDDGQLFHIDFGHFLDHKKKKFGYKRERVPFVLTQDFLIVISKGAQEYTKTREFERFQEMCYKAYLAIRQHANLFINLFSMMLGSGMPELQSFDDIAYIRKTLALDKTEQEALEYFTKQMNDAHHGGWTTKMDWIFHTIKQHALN
Sequence of PI3-Kα (P26450 whole entry partner, the tested form may be a part): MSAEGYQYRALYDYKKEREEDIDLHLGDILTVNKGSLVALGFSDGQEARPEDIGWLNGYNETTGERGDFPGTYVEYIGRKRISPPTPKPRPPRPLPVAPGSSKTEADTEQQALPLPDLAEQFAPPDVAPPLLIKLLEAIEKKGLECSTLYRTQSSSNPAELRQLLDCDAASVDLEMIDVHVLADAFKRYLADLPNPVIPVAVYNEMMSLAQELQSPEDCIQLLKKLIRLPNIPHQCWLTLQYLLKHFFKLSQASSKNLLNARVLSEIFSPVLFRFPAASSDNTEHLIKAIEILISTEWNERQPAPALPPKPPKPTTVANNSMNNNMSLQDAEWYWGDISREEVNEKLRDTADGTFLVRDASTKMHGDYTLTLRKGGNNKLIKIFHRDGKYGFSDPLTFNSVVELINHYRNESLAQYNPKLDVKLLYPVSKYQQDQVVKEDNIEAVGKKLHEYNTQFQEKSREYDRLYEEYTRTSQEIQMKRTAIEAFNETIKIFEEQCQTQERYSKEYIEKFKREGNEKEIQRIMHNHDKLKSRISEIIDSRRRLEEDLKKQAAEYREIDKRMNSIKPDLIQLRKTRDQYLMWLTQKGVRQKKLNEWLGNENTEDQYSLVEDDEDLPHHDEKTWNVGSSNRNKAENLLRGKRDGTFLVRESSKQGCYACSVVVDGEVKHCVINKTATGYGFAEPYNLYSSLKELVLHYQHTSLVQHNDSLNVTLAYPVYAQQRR

Turning to `CCNc1nc(C)c2cc(CCC(=O)O)c(=O)n(C3CCCC3)c2n1` [Compound 130, 3-(8-Cyclopentyl-2-(ethylamino)-4-methyl-7-oxo-7,8-dihydropyrido[2,3-d]pyrimidin-6-yl)propanoic acid], the pIC50 in assay [1] was 7.27; in assay [2], 5.00.

Regarding `CCNc1nc(C)c2cc(-c3cccnc3N)c(=O)n(C3CCCC3)c2n1` [Compound 131, 6-(2-aminopyridin-3-yl)-8-cyclopentyl-2-(ethylamino)-4-methylpyrido[2,3-d]pyrimidin-7(8H)-one], the pIC50 is 5.47 in assay [1] and 5.10 in assay [2].

Turning to `CCNc1nc(C)c2cc(CCC(=O)OCC)c(=O)n(C3CCCC3)c2n1` [Compound 132, Ethyl 3-(8-cyclopentyl-2-(ethylamino)-4-methyl-7-oxo-7,8-dihydropyrido[2,3-d]pyrimidin-6-yl)propanoate], the figures for the pIC50 in assay [1] and in assay [2] were 5.26 and 5.00, respectively.

Consider `CNc1nc(C)c2cc(C#N)c(=O)n(C3CCCC3)c2n1` [Compound 133, 2-Methylamino-6-carbonitrile-8-cyclopentyl-4-methylpyrido[2,3-d]pyrimidin-7(8H)-one], for which the results for the pIC50 in assay [1] and in assay [2] were 7.22 and 6.22, respectively.

Consider `CNc1nc(C)c2cc(-c3ncccc3F)c(=O)n(C3CCCC3)c2n1` [Compound 134, 8-cyclopentyl-6-(3-fluoropyridin-2-yl)-4-methyl-2-(methylamino)pyrido[2,3-d]pyrimidin-7(8H)-one], for which the pIC50 was 5.68 in assay [1] and 5.08 in assay [2].

In the case of `CCNc1nc(C)c2cc(-c3cnc4[nH]ccc4c3)c(=O)n(C3CCCC3)c2n1` [Compound 135, 8-cyclopentyl-2-(ethylamino)-4-methyl-6-(1H-pyrrolo[2,3-b]pyridin-5-yl)pyrido[2,3-d]pyrimidin-7(8H)-one], the values for the pIC50 in assay [1] and in assay [2] were 8.75 and 7.34, respectively.

In the case of `COc1cc(-c2cc3c(C)nc(N)nc3n(C3CCCC3)c2=O)ccc1O` [Compound 137, 2-amino-8-cyclopentyl-6-(4-hydroxy-3-methoxyphenyl)-4-methylpyrido[2,3-d]pyrimidin-7(8H)-one], the pIC50 was 9.00 in assay [1] and 7.72 in assay [2].

As to `CNc1nc(C)c2cc(-c3ccc(Cl)nc3)c(=O)n(C3CCCC3)c2n1` [Compound 138, 6-(6-chloropyridin-3-yl)-8-cyclopentyl-4-methyl-2-(methylamino)pyrido[2,3-d]pyrimidin-7(8H)-one], the pIC50 in assay [1] was 7.53; in assay [2], 6.84.

`CCNc1nc(C)c2cc(-c3cccc(OC)c3)c(=O)n(C3CCCC3)c2n1` [Compound 142, 8-cyclopentyl-2-(ethylamino)-6-(3-methoxyphenyl)-4-methylpyrido[2,3-d]pyrimidin-7(8H)-one]: the pIC50 in assay [1] was 6.10; in assay [2], 5.86.

Take `CNc1nc(C)c2cc(-c3cccc(OC)c3)c(=O)n(C3CCCC3)c2n1` [Compound 143, 8-cyclopentyl-6-(3-methoxyphenyl)-4-methyl-2-(methylamino)pyrido[2,3-d]pyrimidin-7(8H)-one]: the figures for the negative-log IC50 (pIC50) in assay [1] and in assay [2] were 6.61 and 6.17, respectively.

On to `COc1cccc(-c2cc3c(C)nc(N)nc3n(C3CCCC3)c2=O)c1` [Compound 145, 2-amino-8-cyclopentyl-6-(3-methoxyphenyl)-4-methylpyrido[2,3-d]pyrimidin-7(8H)-one], for which the pIC50 in assay [1] is 6.77; in assay [2] it was 6.21.

For `CNc1nc(C)c2cc(-c3cccc(O)c3)c(=O)n(C3CCCC3)c2n1` [Compound 146, 8-cyclopentyl-6-(3-hydroxyphenyl)-4-methyl-2-(methylamino)pyrido[2,3-d]pyrimidin-7(8H)-one], the pIC50 was 9.14 in assay [1] and 8.75 in assay [2].

Turning to `Cc1nc(N)nc2c1cc(-c1cccc(O)c1)c(=O)n2C1CCCC1` [Compound 147, 2-Amino-8-cyclopentyl-6-(3-hydroxyphenyl)-4-methylpyrido[2,3-d]pyrimidin-7(8H)-one], the pIC50 in assay [1] is 9.28; in assay [2], 8.32.

On to `CNc1nc(C)c2cc(-c3cccc(CO)c3)c(=O)n(C3CCCC3)c2n1` [Compound 148, 8-Cyclopentyl-6-(3-(hydroxymethyl)phenyl)-4-methyl-2-(methylamino)pyrido[2,3-d]pyrimidin-7(8H)-one], for which the pIC50 was 8.32 in assay [1] and 7.83 in assay [2].

As to `COc1ccc(Cn2c(=O)c(-c3ccccc3)cc3c(C)nc(N)nc32)cc1` [Compound 149, 8-(4-Methoxybenzyl)-2-amino-4-methyl-6-phenylpyrido[2,3-d]pyrimidin-7(8H)-one], the values for the pIC50 in assay [1] and in assay [2] were 6.51 and under 5.00, respectively.

Consider `Cc1nc(N)nc2c1cc(-c1ccccc1)c(=O)n2Cc1ccc(Cl)cc1` [Compound 150, 8-(4-Chlorobenzyl)-2-amino-4-methyl-6-phenylpyrido[2,3-d]pyrimidin-7(8H)-one], for which the values for the negative logarithm of the IC50 (pIC50) in assay [1] and in assay [2] were 5.85 and under 5.00, respectively.

With `Cc1nc(N)nc2c1cc(-c1ccncc1)c(=O)n2Cc1ccc(Cl)cc1` [Compound 151, 8-(4-Chlorobenzyl)-2-amino-4-methyl-6-(pyridin-4-yl)pyrido[2,3-d]pyrimidin-7(8H)-one], the pIC50 in assay [1] was 5.31; in assay [2], under 5.00.

As for `Cc1nc(N)nc2c1cc(-c1cnn(C)c1)c(=O)n2[C@H]1CC[C@H](O)CC1` [Compound 154, 2-amino-8-(trans-4-hydroxycyclohexyl)-4-methyl-6-(1-melhyl-1H-pyrazol-4-yl)pyrido[2,3-d]pyrimidin-7(8H)-one], the pIC50 was 7.74 in assay [1] and 6.32 in assay [2].

On to `COc1ccc(-c2cc3c(C)nc(N)nc3n([C@@H]3CC[C@H](O)C3)c2=O)cn1` [Compound 155, 2-amino-8-[(1R,3S)-3-hydroxycyclopentyl]-6-(6-methoxypyridin-3-yl)-4-methylpyrido[2,3-d]pyrimidin-7(8H)-one], for which the pIC50 in assay [1] is 7.96; in assay [2] it was 7.08.

For the molecule `Cc1nc(N)nc2c1cc(-c1cn[nH]c1)c(=O)n2[C@H]1CC[C@H](O)CC1` [Compound 156, 2-amino-8-(trans-4-hydroxycyclohexyl)-4-methyl-6-(1H-pyrazol-4-yl)pyrido(2,3-d]pyrimidin-7(8H)-one], the pIC50 in assay [1] is 8.17; in assay [2], 6.77.

On to `Cc1nc(N)nc2c1cc(-c1cnc3[nH]ccc3c1)c(=O)n2[C@H]1CC[C@H](O)CC1` [Compound 158, 2-amino-8-(trans-4-hydroxycyclohexyl)-4-methyl-6-(1H-pyrrolo[2,3-b]pyridin-5-yl)pyrido[2,3-d]pyrimidin-7(8H)-one], for which the pIC50 in assay [1] was 8.89; in assay [2], 7.50.

Take `COc1ccc(-c2cc3c(C)nc(N)nc3n([C@@H]3CC[C@@H](O)C3)c2=O)cn1` [Compound 159, 2-amino-8-[(1R,3R)-3-hydroxycyclopentyl]-6-(6-methoxypyridin-3-yl)-4-methylpyrido[2,3-d]pyrimidin-7(8H)-one]: the values for the negative-log IC50 (pIC50) in assay [1] and in assay [2] were 8.34 and 7.06, respectively.

On to `Cc1nc(N)nc2c1cc(-c1cnc3[nH]ccc3c1)c(=O)n2[C@@H]1CC[C@H](O)C1` [Compound 163, 2-amino-8-[(1R,3S)-3-hydroxycyclopentyl]-4-methyl-6-(1H-pyrrolo[2,3-b]pyridin-5-yl)pyrido[2,3-d]pyrimidin-7(8H)-one], for which the pIC50 is 8.92 in assay [1] and 7.69 in assay [2].

As to `Cc1nc(N)nc2c1cc(-c1cnc3[nH]ccc3c1)c(=O)n2[C@@H]1CC[C@@H](O)C1` [Compound 165, 2-amino-8-[(1R,3R)-3-hydroxycyclopentyl]-4-methyl-6-(1H-pyrrolo[2,3-b]pyridin-5-yl)pyrido[2,3-d]pyrimidin-7(8H)-one], the pIC50 in assay [1] was 8.92; in assay [2], 7.25.

On to `Cc1nc(N)nc2c1cc(Br)c(=O)n2[C@H]1CC[C@@H](O)CC1` [Compound 168, 2-amino-6-bromo-8-(cis-4-hydroxycyclohexyl)-4-methylpyrido[2,3-d]pyrimidin-7(8H)-one], for which the pIC50 was 6.89 in assay [1] and 6.64 in assay [2].

As for `Cc1nc(N)nc2c1cc(-c1ccc(F)cc1)c(=O)n2CC(C)(C)O` [Compound 170, 2-amino-6-(4-fluorophenyl)-8-(2-hydroxy-2-methylpropyl)-4-methylpyrido[2,3-d]pyrimidin-7(8H)-one], the negative logarithm of the IC50 (pIC50) is 5.47 in assay [1] and 5.00 in assay [2].
